“And” between values parts separate entries of the source, which are not always exact repeats. Identical values can stand only once.
What was measured:
[1] = system: TPA-stimulated epidermal DNA synthesis in mouse epidermis; test: TPA-induced epidermal DNA synthesis in mouse epidermis, transdermal fluasterone; format: in vivo, CD-1 mice; details: 20 h
[2] = system: TPA-stimulated epidermal DNA synthesis in mouse epidermis; test: TPA-induced epidermal DNA synthesis in mouse epidermis, oral fluasterone; format: in vivo, CD-1 mice; details: for cpm/μg DNA / μg DNA: Table 4, 20 h, group mean
Procedure: In dose-response experiments the anti-hyperplastic efficacy of fluasterone in TPA-treated mouse epidermis to determine bioavailability following different routes of administration was measured. Mice were treated with a single dose of fluasterone (either orally, subcutaneously, or transdermally) followed by a single application of TPA to the shaved back one hour latter. In case of transdermal administration, fluasterone is applied in a topical formulation to the shaved abdomen to allow for systemic absorption to the back of the animal. Twenty hours after TPA application, the mice are injected with 60 μCi of [3H] thymidine, sacrificed 20 minutes later, and a 2×2 cm2 of skin from the shaved back is excised and processed for the determination of the amount of [3H] thymidine incorporated per unit of epidermal DNA. (Hennings et. al., Cancer Res. 28:543-552, 1968).
Fluasterone suspensions were prepared using sesame oil as vehicle. Micronized fluasterone was obtained from Pharmaceutics International, Inc. Five suspensions were prepared—100 mg/kg (13 mg/mL), 200 mg/kg (26.5 mg/mL), 400 mg/kg (52.4 mg/mL), 800 mg/kg (105.5 mg/mL), and 1200 mg/kg (158.3 mg/mL). The fluasterone for each suspension was weighed, placed into a plastic vial, and the required volume of sesame oil was added to the vial. The fluasterone was suspended in the sesame oil with the use of a Tekmar Tissumizer. Magnetic stirrer bars were added to the various suspensions which were stirred on a magnetic stirrer prior to treatment. Control and TPA groups received sesame oil alone.
Female CD-1 mice were obtained from Charles River Laboratories, Wilmington, Mass. at 35-37 days of age.
The mice were housed three per cage in plastic shoebox cages on Alphacel bedding with 12 hours of alternating light and dark in the CAF Animal Facility. The mice had ad libitum access to Purina 5.015 chow and acidified tap water (pH≦2.6). The mice were shaved, weighed and distributed into groups of three. • Control The mice were treated orally with 0.2 mL of sesame oil. One hour after treatment with sesame oil, the mice were treated topically with 0.2 mL of acetone. • TPA The mice were treated orally with 0.2 mL of sesame oil. […] One hour after treatment with fluasterone, the mice were treated topically with 2 μg of TPA in 0.2 mL of acetone.
The mice were sacrificed 20 hours after treatment by an overdose of CO2. Twenty minutes prior to sacrifice, the mice were injected with 60 μCi of [^3H]thymidine (Amersham). The mice were treated with a depilatory to remove any residual hair. A 2×2 cm^2 piece of skin was excised, placed in ice water for 30 seconds, then in 55° C. water for 30 seconds, then in ice water again for 30 seconds. The epidermis was s raped off using a scalpel and the scrapings were placed into ice cold 0.4N TCA. The scrapings were homogenized using a Tekmar Tissumizer (80% power for 30 seconds). The homogenates were centrifuged for 20 minutes at 3,000×g. The precipitates were washed 3× with 0.2N TCA. The TCA was removed and the precipitates were stored at −20° C. overnight. The next day, the precipitates were washed 2× with absolute ethanol. The DNA in each sample was hydrolyzed with 0.5N TCA for 30 minutes at 90°. The tubes were centrifuged for 20 minutes at 3000×g. A 0.2 mL aliquot of each hydrolysate was counted in a LKB Rackbeta scintillation counter using Scintiverse II BD as the counting medium. DNA content was determined by the Burton diphenylamine assay.
102.7 mg of Micronized fluasterone I was weighed using a Mettler AE-50 balance, transferred to a glass scintillation vial, and homogenized in 6.0 mL of carboxymethylcellulose-Tween 80 using a Tekmar Tissumizer (200 mg/kg micronized I suspension, 200 MI). 88.4 mg of micronized fluasterone II was then weighed, transferred to a glass scintillation vial, and homogenized in 5.2 mL of CMC-Tween using a Tekmar Tissumizer (200 mg/kg micronized II suspension, 200 MII).

[3] = Cremophor EL solution, 5 mg/kg transdermal (abdomen) 1 h before 2 μg TPA (back), single mice, 5 mg/kg
[4] = Cremophor EL:ethanol (50:50 v/v) solution, 1.9 mg/kg transdermal (abdomen) 1 h before 2 μg TPA (back), single mice, 1.9 mg/kg
[5] = Cremophor EL:ethanol (50:50 v/v) solution, 2.5 mg/kg transdermal (abdomen) 1 h before 2 μg TPA (back), single mice, 2.5 mg/kg
[6] = Tween 80:ethanol (50:50 v/v) solution, 1.9 mg/kg transdermal (abdomen) 1 h before 2 μg TPA (back), single mice, 1.9 mg/kg
[7] = carbitol solution, 1.25 mg/kg transdermal (abdomen) 1 h before 2 μg TPA (back), single mice, 1.25 mg/kg
[8] = carbitol solution, 2.5 mg/kg transdermal (abdomen) 1 h before 2 μg TPA (back), single mice, 2.5 mg/kg
[9] = carbitol solution, 5 mg/kg transdermal (abdomen) 1 h before 2 μg TPA (back), single mice, 5 mg/kg
[10] = ethanol:limonene:isopropyl myristate (81:15:4) solution, 1.5 mg/kg transdermal (abdomen) 1 h before 2 μg TPA (back), single mice, 1.5 mg/kg
[11] = ethanol:limonene:isopropyl myristate (81:15:4) solution, 5 mg/kg transdermal (abdomen) 1 h before 2 μg TPA (back), single mice, 5 mg/kg
[12] = micronized suspension in ethanol:water:Tween 80 (76:19:5), 1.5 mg/kg transdermal (abdomen) 1 h before 2 μg TPA (back), single mice and group mean, 1.5 mg/kg
[13] = micronized suspension in ethanol:water:Tween 80 (76:19:5), 1.5 mg/kg transdermal (abdomen) 1 h before 2 μg TPA (back), single mice, 1.5 mg/kg
[14] = micronized suspension in ethanol:water:Tween 80 (76:19:5), 2.5 mg/kg transdermal (abdomen) 1 h before 2 μg TPA (back), single mice, 2.5 mg/kg
[15] = 100 mg/kg p.o. micronized in sesame oil 1 h before 2 μg TPA
[16] = 200 mg/kg p.o. micronized in sesame oil 1 h before 2 μg TPA
[17] = 400 mg/kg p.o. micronized in sesame oil 1 h before 2 μg TPA
[18] = 800 mg/kg p.o. micronized in sesame oil 1 h before 2 μg TPA
[19] = 1200 mg/kg p.o. micronized in sesame oil 1 h before 2 μg TPA

## C[C@]12CCCCC1=CC[C@@H]1[C@@H]2CC[C@]2(C)C(=O)[C@H](F)C[C@@H]12 [Fluasterone, 16α-fluoro-5-androsten-17-one]
[1]; Cremophor EL solution, 1.25 mg/kg transdermal (abdomen) 1 h before 2 μg TPA (back), single mice, 1.25 mg/kg
  μg DNA/0.2 mL: 28.1 μg DNA/0.2 mL and 14.9 μg DNA/0.2 mL
[1]; Cremophor EL solution, 1.9 mg/kg transdermal (abdomen) 1 h before 2 μg TPA (back), single mice and group mean, 1.9 mg/kg
  cpm/μg DNA: 161.0 cpm/μg DNA and 270.3 cpm/μg DNA and 215.7 ± 77.3 cpm/μg DNA
[1]; Cremophor EL solution, 1.9 mg/kg transdermal (abdomen) 1 h before 2 μg TPA (back), single mice, 1.9 mg/kg
  μg DNA/0.2 mL: 15.4 μg DNA/0.2 mL and 20.1 μg DNA/0.2 mL
[1]; Cremophor EL solution, 2.5 mg/kg transdermal (abdomen) 1 h before 2 μg TPA (back), single mice, 2.5 mg/kg
  μg DNA/0.2 mL: 8.6 μg DNA/0.2 mL and 10.1 μg DNA/0.2 mL
[1]; [3]
  cpm: 1,015 cpm and 1,686 cpm
  μg DNA/0.2 mL: 8.4 μg DNA/0.2 mL and 11.2 μg DNA/0.2 mL
[1]; Cremophor EL:ethanol (50:50 v/v) solution, 1.9 mg/kg transdermal (abdomen) 1 h before 2 μg TPA (back), single mice and group mean, 1.9 mg/kg
  cpm/μg DNA: 207.8 cpm/μg DNA and 160.4 cpm/μg DNA
[1]; [4]
  corrected cpm: 5,965 cpm and 4,025 cpm
  cpm: 5,990 cpm and 4,050 cpm
  μg DNA/0.2: 28.7 μg DNA/0.2 and 25.1 μg DNA/0.2
[1]; Cremophor EL:ethanol (50:50 v/v) solution, 2.5 mg/kg transdermal (abdomen) 1 h before 2 μg TPA (back), single mice and group mean, 2.5 mg/kg
  cpm/μg DNA: 423.2 cpm/μg DNA and 410.7 cpm/μg DNA and 462.8 cpm/μg DNA
[1]; [5]
  corrected cpm: 7,068 cpm and 6,243 cpm and 6,341 cpm
  cpm: 7,093 cpm and 6,268 cpm and 6,366 cpm
  μg DNA/0.2: 16.7 μg DNA/0.2 and 15.2 μg DNA/0.2 and 13.7 μg DNA/0.2
[1]; Cremophor EL:ethanol (50:50 v/v) solution, 5 mg/kg transdermal (abdomen) 1 h before 2 μg TPA (back), single mice and group mean, 5 mg/kg
  cpm/μg DNA: 125.1 cpm/μg DNA and 222.9 cpm/μg DNA and 206.4 cpm/μg DNA
[1]; Cremophor EL:ethanol (50:50 v/v) solution, 5 mg/kg transdermal (abdomen) 1 h before 2 μg TPA (back), single mice, 5 mg/kg
  μg DNA/0.2: 15.0 μg DNA/0.2 and 14.0 μg DNA/0.2 and 13.3 μg DNA/0.2
[1]; Tween 80:ethanol (50:50 v/v) solution, 1.9 mg/kg transdermal (abdomen) 1 h before 2 μg TPA (back), single mice and group mean, 1.9 mg/kg
  cpm/μg DNA: 216.3 cpm/μg DNA and 189.8 cpm/μg DNA
[1]; [6]
  corrected cpm: 3,114 cpm and 3,150 cpm
  cpm: 3,139 cpm and 3,175 cpm
  μg DNA/0.2: 14.4 μg DNA/0.2 and 16.6 μg DNA/0.2
[1]; carbitol solution, 1.25 mg/kg transdermal (abdomen) 1 h before 2 μg TPA (back), single mice and group mean, 1.25 mg/kg
  cpm/μg DNA: 270.1 cpm/μg DNA and 341.3 cpm/μg DNA and 287.9 ± 25.2 cpm/μg DNA
[1]; [7]
  corrected cpm: 6,051 cpm and 10,170 cpm
  cpm: 6,086 cpm and 10,205 cpm
  μg DNA/0.2 mL: 22.4 μg DNA/0.2 mL and 29.8 μg DNA/0.2 mL
[1]; carbitol solution, 1.9 mg/kg transdermal (abdomen) 1 h before 2 μg TPA (back), single mice, 1.9 mg/kg
  μg DNA/0.2 mL: 18.4 μg DNA/0.2 mL and 11.8 μg DNA/0.2 mL
[1]; carbitol solution, 2.5 mg/kg transdermal (abdomen) 1 h before 2 μg TPA (back), single mice and group mean, 2.5 mg/kg
  cpm/μg DNA: 64.8 cpm/μg DNA and 73.8 cpm/μg DNA and 69.3 ± 6.3 cpm/μg DNA
[1]; [8]
  corrected cpm: 616 cpm and 649 cpm
  cpm: 651 cpm and 684 cpm
  μg DNA/0.2 mL: 9.5 μg DNA/0.2 mL and 8.8 μg DNA/0.2 mL
[1]; [9]
  corrected cpm: 5,338 cpm and 5,045 cpm
  cpm: 5,373 cpm and 5,080 cpm
  μg DNA/0.2 mL: 10.0 μg DNA/0.2 mL and 10.8 μg DNA/0.2 mL
[1]; ethanol:limonene:isopropyl myristate (81:15:4) solution, 1.5 mg/kg transdermal (abdomen) 1 h before 2 μg TPA (back), single mice and group mean, 1.5 mg/kg
  μg DNA/0.2 mL: 25.8 μg DNA/0.2 mL and 25.1 μg DNA/0.2 mL
[1]; [10]
  corrected cpm: 5,854 cpm and 3,703 cpm
  cpm: 5,883 cpm and 3,732 cpm
[1]; ethanol:limonene:isopropyl myristate (81:15:4) solution, 2.5 mg/kg transdermal (abdomen) 1 h before 2 μg TPA (back), single mice and group mean (p < 0.05 vs TPA), 2.5 mg/kg
  μg DNA/0.2 mL: 18.1 μg DNA/0.2 mL and 15.3 μg DNA/0.2 mL
[1]; ethanol:limonene:isopropyl myristate (81:15:4) solution, 5 mg/kg transdermal (abdomen) 1 h before 2 μg TPA (back), single mice and group mean (p < 0.05 vs TPA), 5 mg/kg
  μg DNA/0.2 mL: 15.9 μg DNA/0.2 mL and 17.3 μg DNA/0.2 mL
[1]; ethanol:limonene:isopropyl myristate (81:15:4) solution, 5 mg/kg transdermal (abdomen) 1 h before 2 μg TPA (back), single mice and group mean, 5 mg/kg
  cpm/μg DNA: 532.5 cpm/μg DNA and 603.2 cpm/μg DNA
[1]; [11]
  corrected cpm: 8,467 cpm and 10,436 cpm
  cpm: 8,496 cpm and 10,465 cpm
[1]; [12]
  cpm/μg DNA: 135.7 cpm/μg DNA and 98.9 cpm/μg DNA
  μg DNA/0.2 mL: 34.3 μg DNA/0.2 mL and 35.2 μg DNA/0.2 mL
[1]; [13]
  corrected cpm: 4,655 cpm and 3,481 cpm
  cpm: 4,684 cpm and 3,510 cpm
[1]; micronized suspension in ethanol:water:Tween 80 (76:19:5), 2.5 mg/kg transdermal (abdomen) 1 h before 2 μg TPA (back), single mice and group mean (p < 0.02 vs TPA), 2.5 mg/kg
  μg DNA/0.2 mL: 19.6 μg DNA/0.2 mL and 16.6 μg DNA/0.2 mL
[1]; micronized suspension in ethanol:water:Tween 80 (76:19:5), 2.5 mg/kg transdermal (abdomen) 1 h before 2 μg TPA (back), single mice and group mean, 2.5 mg/kg
  cpm/μg DNA: 109.5 cpm/μg DNA and 139.0 cpm/μg DNA
[1]; [14]
  corrected cpm: 2,147 cpm and 2,308 cpm
  cpm: 2,176 cpm and 2,337 cpm
[1]; micronized suspension in ethanol:water:Tween 80 (76:19:5), 5 mg/kg transdermal (abdomen) 1 h before 2 μg TPA (back), single mice and group mean (p < 0.01 vs TPA), 5 mg/kg
  μg DNA/0.2 mL: 16.5 μg DNA/0.2 mL and 18.9 μg DNA/0.2 mL
[2]; [15]
  cpm/μg DNA: 539.8 ± 75.9 cpm/μg DNA
  μg DNA: 15.5 ± 3.0 µg
[2]; [16]
  cpm/μg DNA: 185.0 ± 38.2 cpm/μg DNA
  μg DNA: 6.0 ± 1.9 µg
[2]; [17]
  cpm/μg DNA: 208.8 ± 144.2 cpm/μg DNA
  μg DNA: 6.6 ± 2.6 µg
[2]; [18]
  cpm/μg DNA: 634.3 ± 151.6 cpm/μg DNA
  μg DNA: 6.2 ± 1.0 µg
[2]; [19]
  cpm/μg DNA: 850.0 ± 256.0 cpm/μg DNA
  μg DNA: 6.3 ± 1.5 µg
[2]; mouse skin, single oral dose
  lowest effective oral dose which abolishes TPA-stimulated epidermal hyperplasia ([3H]thymidine incorporation and epidermal DNA content): 200 mg/kg

Reference: patent publication US9408856B2, “Topical steroidal formulations” (Temple University—Of The Commonwealth System of Higher …, priority 2008, dated 2016)
